Experimental data as given in ChEMBL document CHEMBL1125599, “Cholinergic activity of acetylenic imidazoles and related compounds” (J Med Chem, 1991).

Legend:
Mus musculus [1] = assay: ED50 value determined as oxotremorine antagonism by measuring salivation in mice (in vivo); format: functional
Mus musculus [2] = assay: ED50 value determined as oxotremorine antagonism by measuring tremors in mice (in vivo); format: functional
Mus musculus [3] = assay: ED50 value as cholinergic agonism by measuring lacrimation in mice (in vivo); format: functional
Mus musculus [4] = assay: ED50 value as cholinergic agonist by measuring salivation in mice (in vivo); format: functional
Mus musculus [5] = assay: ED50 value as cholinergic agonist by measuring tremors in mice (in vivo); format: functional
Mus musculus [6] = assay: ED50 value determined as oxotremorine antagonism by measuring lacrimation in mice (in vivo); format: functional
[7] = target: Muscarinic acetylcholine receptor; assay: Binding affinity to muscarinic acetylcholine receptor was determined in presence of [3H]OXO-M radioligand (in vitro); format: protein assay
[8] = target: Muscarinic acetylcholine receptor; assay: Binding affinity to muscarinic acetylcholine receptor was determined in presence of [3H]QNB radioligand (in vitro); format: protein assay
[9] = target: Muscarinic acetylcholine receptor (Rattus norvegicus) (UniProt P08482+P08483+P08485+P08911+P10980); assay: Ratio of Ki value for QNB to that of Ki value for Oxo-M.; format: protein assay

| Structure (SMILES) | ED50 (Mus musculus [1]) | ED50 (Mus musculus [2]) | ED50 (Mus musculus [3]) | ED50 (Mus musculus [4]) | ED50 (Mus musculus [5]) | ED50 (Mus musculus [6]) | Ki [7] | Ki [8] | Ki ratio [9] |
| --- | --- | --- | --- | --- | --- | --- | --- | --- | --- |
| O=C1OCCN1CC#CCN1CCCC1 | > 10 mg/kg | > 10 mg/kg | > 10 mg/kg | 5.4 mg/kg | 3.7 mg/kg | > 10 mg/kg | 8.9 nM | 1362 nM | 153 |
| CCOC(=O)N(C)C(C)C#CCN1CCCC1 (centres undefined) | > 100 mg/kg | > 100 mg/kg | > 100 mg/kg | > 100 mg/kg | > 100 mg/kg | 97 mg/kg | 22 nM | 110 nM | 5 |
| Cc1cncn1CC#CCN1CCOC1=O | 80 mg/kg | > 100 mg/kg | > 100 mg/kg | > 100 mg/kg | 30 mg/kg | 37 mg/kg | 18 nM | 151 nM | 8.4 |
| Cc1cncn1CC#CC(C)N1CCCC1=O (centres undefined) | 2.5 mg/kg | 25.4 mg/kg | > 100 mg/kg | > 100 mg/kg | > 100 mg/kg | 0.45 mg/kg | 5.22 nM | 16.8 nM | 3.2 |
| COC(=O)N(C)CC#CCN1CCCC1 | > 10 mg/kg | > 10 mg/kg | 3 mg/kg | 5.5 mg/kg | 1.4 mg/kg | > 10 mg/kg | 2.6 nM | 550 nM | 211 |
| CC1CCC(=O)N1CC#CCN(C)C (centres undefined) | > 100 mg/kg | > 100 mg/kg | 3.7 mg/kg | 3 mg/kg | 1.7 mg/kg | > 100 mg/kg | 7.1 nM | 690 nM | 97 |
| COC(=O)N(C)C(C)C#CCN1CCCC1 (centres undefined) | > 100 mg/kg | > 100 mg/kg | 20.9 mg/kg | 14.2 mg/kg | 9.7 mg/kg | > 100 mg/kg | 1.5 nM | 64 nM | 43 |
| CC(=O)N(C)CC#CCN1CCCC1 | > 10 mg/kg | > 10 mg/kg | 0.55 mg/kg | 0.55 mg/kg | 0.3 mg/kg | > 10 mg/kg | 0.92 nM | 260 nM | 283 |
| COC(=O)N(C)C(C)C#CCn1ccnc1 (centres undefined) | > 100 mg/kg | > 100 mg/kg | 8 mg/kg | 8 mg/kg | 6.6 mg/kg | > 100 mg/kg | 13 nM | 1355 nM | 104 |
| COC(=O)N(C)C(C)C#CCn1cncc1C (centres undefined) | 6.6 mg/kg | > 100 mg/kg | > 100 mg/kg | > 100 mg/kg | 97 mg/kg | 3.7 mg/kg | 9.5 nM | 97 nM | 10 |
| CC(C#CCN1CCCC1)N1CCCC1=O (centres undefined) | 0.55 mg/kg | 3 mg/kg | > 30 mg/kg | > 30 mg/kg | > 30 mg/kg | 0.55 mg/kg | 1.1 nM | 14 nM | 13 |
| CN(C)C(=O)N(C)CC#CCN1CCCC1 | > 10 mg/kg | > 10 mg/kg | > 10 mg/kg | > 10 mg/kg | 1.2 mg/kg | 6.6 mg/kg | 3.6 nM | 140 nM | 39 |
| CC(C#CCn1ccnc1)N1CCN(C)C1=O (centres undefined) | 21 mg/kg | > 100 mg/kg | > 100 mg/kg |  | 97 mg/kg | 21 mg/kg | 120 nM | 4009 nM | 33 |
| CC(C#CCN(C)C)N1CCCC1=O (centres undefined) | > 100 mg/kg | > 100 mg/kg | 6.6 mg/kg | 6.6 mg/kg | 100 mg/kg | > 100 mg/kg | 26.4 nM | 1702 nM | 65 |
| Cc1cncn1CC#CCN1CCCC1=O | > 100 mg/kg | > 100 mg/kg | > 100 mg/kg | > 100 mg/kg | 2.5 mg/kg | 0.8 mg/kg | 3.2 nM | 64 nM | 20 |
| Cc1cncn1CC#CCN1C(=O)CCC1C (centres undefined) | 1.4 mg/kg | 14.2 mg/kg | > 100 mg/kg | > 100 mg/kg | > 100 mg/kg | 0.8 mg/kg | 1.68 nM | 11.6 nM | 6.9 |
| Cc1cncn1CC#CCn1ccn(C)c1=O | 22 mg/kg | > 100 mg/kg | > 100 mg/kg |  | 100 mg/kg | 8 mg/kg | 39 nM | 614 nM | 16 |
| CCOC(=O)N(C)C(C)C#CCn1cncc1C (centres undefined) | 17.3 mg/kg | 30 mg/kg | > 100 mg/kg | > 100 mg/kg | > 100 mg/kg | 9.7 mg/kg | 156 nM | 568 nM | 3.6 |
| COC(=O)NCC#CCn1cncc1C | 80 mg/kg | > 100 mg/kg | > 100 mg/kg | > 100 mg/kg | > 100 mg/kg | 66 mg/kg | 191 nM | 6825 nM | 36 |
| CC1CCC(=O)N1CC#CCN1CCCC1 (centres undefined) | 2 mg/kg | 1.7 mg/kg | > 30 mg/kg | > 30 mg/kg | > 30 mg/kg | 0.55 mg/kg | 1.5 nM | 14 nM | 9.4 |
| O=C1OCCN1CC#CCn1ccnc1 | > 100 mg/kg | > 100 mg/kg | 3 mg/kg | 2 mg/kg | 3 mg/kg | > 100 mg/kg | 5.7 nM | 929 nM | 164 |
| CCOC(=O)N(C)CC#CCN1CCCC1 | > 100 mg/kg | > 100 mg/kg | > 100 mg/kg | > 100 mg/kg | 66 mg/kg | > 100 mg/kg | 65 nM | 4219 nM | 65 |
| CCOC(=O)N(C)CC#CCn1cncc1C | 66 mg/kg | 30 mg/kg | > 100 mg/kg | > 100 mg/kg | 97 mg/kg | 66 mg/kg | 156 nM | 568 nM | 3.6 |
| Cc1c[n+](C)cn1CC#CCN1CCCC1=O.[I-] | 25 mg/kg | > 100 mg/kg | > 100 mg/kg | > 100 mg/kg | 30 mg/kg | 9.7 mg/kg | 53 nM | 303 nM | 5.7 |
